Source: BindingDB's records for doi:10.1016/j.bmcl.2019.126678 (Vanderbilt University, 2019)

Assays:
[1] = target: Muscarinic acetylcholine receptor M4 (human) (UniProt P08173); assay: Positive allosteric modulation of human M4 receptor expressed in CHO cells co-expressing Gqi5 assessed as increase in acetylcholine-induced calcium mobilization incubated with EC20 ACh for 140 secs and subsequent EC80 Ach addition further incubated for 120 secs by Fluo-4-AM dye based fluorescence assay
[2] = target: Muscarinic acetylcholine receptor M4 (rat); assay: Positive allosteric modulation of rat M4 receptor expressed in CHO cells co-expressing Gqi5 assessed as increase in acetylcholine-induced calcium mobilization incubated with EC20 ACh for 140 secs and subsequent EC80 Ach addition further incubated for 120 secs by Fluo-4-AM dye based fluorescence assay

Sequence of Muscarinic acetylcholine receptor M4 (human) (P08173 whole entry, looked up): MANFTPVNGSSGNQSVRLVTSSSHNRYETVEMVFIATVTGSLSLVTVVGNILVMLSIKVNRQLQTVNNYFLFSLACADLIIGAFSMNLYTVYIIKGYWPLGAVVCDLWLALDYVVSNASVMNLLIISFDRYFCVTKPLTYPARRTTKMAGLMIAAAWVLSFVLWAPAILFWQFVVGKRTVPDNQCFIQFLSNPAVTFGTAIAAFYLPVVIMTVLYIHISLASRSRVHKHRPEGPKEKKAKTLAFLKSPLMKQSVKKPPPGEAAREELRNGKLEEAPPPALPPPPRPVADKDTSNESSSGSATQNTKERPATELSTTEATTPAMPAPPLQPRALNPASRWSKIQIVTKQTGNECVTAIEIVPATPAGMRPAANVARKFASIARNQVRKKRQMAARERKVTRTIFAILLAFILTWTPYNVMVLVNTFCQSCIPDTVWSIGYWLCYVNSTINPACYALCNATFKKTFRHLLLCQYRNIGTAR

| SMILES | EC50 [1] | EC50 [2] |
| --- | --- | --- |
| Cc1nnc2ccc(C(=O)NC3CN(c4cccc(C(F)(F)F)n4)C3)cc2c1C | 3360 nM | – |
| Cc1nnc2ccc(C(=O)NC3CN(c4cccc(F)n4)C3)cc2c1C | 668 nM | – |
| Cc1nnc2ccc(C(=O)NC3CN(c4ncc(C#N)cc4Cl)C3)cc2c1C | 304 nM | 138 nM |
| Cc1nnc2ccc(C(=O)NC3CN(c4ncc(C(F)(F)F)cn4)C3)cc2c1C | > 10000 nM | – |
| Cc1nnc2ccc(C(=O)NC3CN(c4ncc(OC(C)C)cn4)C3)cc2c1C | 3200 nM | – |
| Cc1nnc2ccc(C(=O)NC3CN(c4ccc(C#N)cn4)C3)cc2c1C | 1030 nM | – |
| Cc1nnc2ccc(C(=O)NC3CN(c4ncc(C5CC5)cc4Cl)C3)cc2c1C | 1390 nM | – |
| Cc1nnc2ccc(C(=O)NC3CN(c4ncc(C(F)(F)F)cc4Cl)C3)cc2c1C | 2630 nM | – |
| Cc1nnc2ccc(C(=O)NC3CN(c4cccc(Cl)n4)C3)cc2c1C | 1320 nM | – |
| Cc1nnc2ccc(C(=O)NC3CN(c4ncccc4F)C3)cc2c1C | 1220 nM | – |
| Cc1nnc2ccc(C(=O)NC3CN(c4ncc(F)cc4Cl)C3)cc2c1C | 464 nM | 174 nM |
| COc1cc(N2CC(NC(=O)c3ccc4nnc(C)c(C)c4c3)C2)c(Cl)cn1 | 373 nM | 356 nM |
| Cc1nnc2ccc(C(=O)NC3CN(c4ccc(Cl)cn4)C3)cc2c1C | 1270 nM | – |
| Cc1nnc2ccc(C(=O)NC3CN(c4ncccc4Cl)C3)cc2c1C | 952 nM | – |
| Cc1nnc2ccc(C(=O)NC3CN(c4cc(Cl)ncc4Cl)C3)cc2c1C | 116 nM | 230 nM |
| Cc1nnc2ccc(C(=O)NC3CN(c4ccc(F)c(F)c4)C3)cc2c1C | 737 nM | – |
| Cc1nnc2ccc(C(=O)NC3CN(c4ncc(Cl)cc4F)C3)cc2c1C | 648 nM | 82 nM |
| Cc1nnc2ccc(C(=O)NC3CN(c4cnc(C5CC5)cn4)C3)cc2c1C | 2510 nM | – |
| Cc1nnc2ccc(C(=O)NC3CN(c4ccc(OC(F)F)nc4)C3)cc2c1C | 1460 nM | – |
